Measured values from US12625427B2, “Naphthalimide sulfonate derivative, and photoacid generator and photoresist composition each comprising same” (SAMYANG CORPORATION, priority 2020, dated 2026).

What was measured:
[1] = Measurement of solubility of photoacid generators in photoresist solvents; format: physicochemical; conditions: for Solubility (w/v %) PGMEA: solvent PGMEA; for Solubility (w/v %) Cyclohexane: solvent cyclohexane
Text: In preparing a photoresist composition, solubility of a photoacid generator is very important.

[2] = Measurement of thermal stability by thermogravimetric analyzer; format: physicochemical
Text: If a photoacid generator is thermally stable in a photoresist preparation process, a very good effect in terms of stability can be expected.

SMILES	Solubility (w/v %) PGMEA [1] [w/v %]	Solubility (w/v %) Cyclohexane [1] [w/v %]	Temperature at which 5% weight loss occurred [2] [°C]
CCCC(OCCOC)c1ccc2c3c(cccc13)C(=O)N(OS(=O)(=O)C(F)(F)F)C2=O (stereo not shown) [Compound 19]	60.0	64.1	234
CCCCOCCOC(CCC)c1ccc2c3c(cccc13)C(=O)N(OS(=O)(=O)C(F)(F)F)C2=O (stereo not shown) [Compound 20]	45.0	54.1	235
CCCCOC(CCC)c1ccc2c3c(cccc13)C(=O)N(OS(=O)(=O)C(F)(F)F)C2=O (stereo not shown) [Compound 8]	50.0	62.3	232

More lines, now with the values ahead:

Solubility (w/v %) PGMEA [1] [w/v %]	Solubility (w/v %) Cyclohexane [1] [w/v %]	Temperature at which 5% weight loss occurred [2] [°C]	SMILES
1.7	5.8	223	O=C1c2cccc3cccc(c23)C(=O)N1OS(=O)(=O)C(F)(F)F [Formula II, reference compound]
–	–	230	CCCC(OC)c1ccc2c3c(cccc13)C(=O)N(OS(=O)(=O)C(F)(F)F)C2=O (stereo not shown) [Compound 11]
